# Source: patent publication US20230277560A1, “USE OF C[…] THE TREATMENT OF SEIZURES ASSOCIATED WITH CHRNA4 MUTATION” (GW Research Limited, priority 2020, published 2023)
# Test system: seizures associated with CHRNA4 mutation
# Assay: Open label, expanded-access program: seizure frequency in a patient with CHRNA4 mutation
# Format: in vivo, human
# Settings: for Seizure frequency, Absence: baseline 0.0; for Seizure frequency, Absence / Seizure frequency, Tonic-clonic / Seizure frequency, Atonic / Seizure frequency, Myoclonic: concomitant rufinamide; for Seizure frequency, Tonic-clonic: baseline 0.4; for Seizure frequency, Atonic / Seizure frequency, Myoclonic: baseline 2800.0
# Procedure: The subject was required to be on one or more AEDs at stable doses for a minimum of two weeks prior to baseline and to have stable vagus nerve stimulation (VNS) settings and ketogenic diet ratios for a minimum of four weeks prior to baseline.
# The patient was administered botanically derived purified CBD in a 100 mg/mL sesame oil-based solution. Dose was increased to a goal of 25 mg/kg/day.
# A maximum dose of 50 mg/kg/day could be utilised for the patient if they were tolerating the medication but had not achieved seizure control; the patient had further weekly titration by 5 mg/kg/day.
# There was one patient in this study, and they received CBD for 24 weeks. Modifications were made to concomitant AEDs as per clinical indication.
# Seizure frequency, intensity, and duration were recorded by caregivers in a diary during a baseline period of at least 28 days. Changes in seizure frequency relative to baseline were calculated after at least 2 weeks and at defined timepoints of treatment.
# Patients may be defined as responders if they had more than 50% reduction in seizure frequency compared to baseline. The percent change in seizure frequency was calculated as follows: […]
# The percent change of seizure frequency may be calculated for any time interval where seizure number has been recorded. For the purpose of this example the percent change of seizure frequency for the end of the treatment period was calculated as follows: […]
# [1] = Patient 1, 4 weeks, CBD 15.0 mg/kg/day
# [2] = Patient 1, 8 weeks, CBD 25.0 mg/kg/day
# [3] = Patient 1, 12 weeks, CBD 25.0 mg/kg/day
# [4] = Patient 1, 16 weeks, CBD 25.0 mg/kg/day
# [5] = Patient 1, 24 weeks, CBD 23.8 mg/kg/day
# [6] = Patient 1, treated for 24 weeks, relative to baseline
compound,measurement,setting,value
"C=C(C)[C@@H]1CCC(C)=C[C@H]1c1c(O)cc(CCCCC)cc1O [CBD, cannabidiol]","Seizure frequency, Absence",[1],0.0
same,"Seizure frequency, Tonic-clonic",[1],1.0
same,"Seizure frequency, Atonic",[1],2800.0
same,"Seizure frequency, Myoclonic",[1],2800.0
same,"Seizure frequency, Absence",[2],0.0
same,"Seizure frequency, Tonic-clonic",[2],0.0
same,"Seizure frequency, Atonic",[2],2800.0
same,"Seizure frequency, Myoclonic",[2],2800.0
same,"Seizure frequency, Absence",[3],0.0
same,"Seizure frequency, Tonic-clonic",[3],1.0
same,"Seizure frequency, Atonic",[3],2561.0
same,"Seizure frequency, Myoclonic",[3],2560.0
same,"Seizure frequency, Absence",[4],84.0
same,"Seizure frequency, Tonic-clonic",[4],3.0
same,"Seizure frequency, Atonic",[4],1260.0
same,"Seizure frequency, Myoclonic",[4],840.0
same,frequency of atonic and myoclonic seizures (overall statement),"Patient 1, 24 weeks treatment",effective in reducing the frequency
same,"Seizure frequency, Absence",[5],140.0
same,"Seizure frequency, Tonic-clonic",[5],18.7
same,"Seizure frequency, Atonic",[5],840.0
same,"Seizure frequency, Myoclonic",[5],840.0
same,reduction in atonic seizures over the treatment period,[6],70%
same,reduction in myoclonic seizures over the treatment period,[6],70%
same,number of seizures associated with CHRNA4 mutation (conclusion),"one patient, 24 weeks treatment",significantly reduce
same,"tonic-clonic, atonic, myoclonic and absence seizures (summary statement)","open label, expanded-access program, patients with CHRNA4 mutation",significant reduction
